Test results from patent US20190203253A1, “METHODS OF IDENTIFYING AND TREATING CANCER PATIENTS WITH AN EPHB6 DEFICIENCY” (University of Saskatchewan, priority 2016, published 2019).

Columns and labels:
[1] = system: MDA-B6 and MDA-pc3 cells; assay: Cell survival (resazurin) with MET inhibitor, MDA-MB-231-derived cells; format: cell-based, human; settings: increasing concentrations, 24 hours, vs MDA-B6 (FIG. 10A)
Method: (§1) FIG. 10. Analysis of EPHB6-MET SL interaction. A and B, MDA-B6 and MDA-pc3 (A) or BT2O-NS and BT20-shB6 (B) cells were treated for 24 hours with the indicated concentrations of MET inhibitor, ARQ197, or with matching concentrations of DMSO, as a control. Treated cells were stained with Resazurin for 2 h at 37° C. and cell survival was measured using a microplate reader. Data represent the analysis of triplicates and are shown as a percentage relative to matching DMSO controls. (*) Statistical analyses: Student's t test, P<0.05 for indicated points. All analyses represent one of at least three independent experiments.
(§2) As mentioned above, a number of potential candidates that predominantly function in signal transduction (FIG. 2G), including DDR2, SRC, ROCK2 and MET (Table 1), were identified. Further testing with a MET inhibitor, ARQ197, was conducted to evaluate its SL properties. MDA-B6 and MDA-pc3 cells, as well as BT20-NS and BT20-shB6 cells, obtained using a method similar as described above in Example 1, were treated with increasing concentrations of ARQ197.

[2] = system: co-cultured MDA-pc3 and MDA-B6 cells; assay: Co-cultured colour-coded cells with MET inhibitor (flow cytometry); format: cell-based, human; settings: 0.3 μM, 24, 32 and 48 hours, 1:1 co-culture (FIG. 11)
Method: FIG. 11. MET inhibition preferentially suppresses EPHB6-deficient cells. Hygro-selected combinations of MDA-B6-GFP and MDA-pc3-RFP (A and B) or MDA-B6-RFP and MDA-pc3-GFP (C and D) cells were seeded in 1:1 ratio and treated with 0.3 μM concentration of Met receptor inhibitor, ARQ197, or with a matching volume of DMSO, as a solvent control for 24, 32, and 48 hours. Treated cells were analyzed by flow cytometry. Bar graphs are based on the analyses of triplicates and represent a suppression of ARQ197-treated cell populations as a percentage relative to matching DMSO controls. (*) Statistical analyses: Student's t test, P<0.05 for indicated points. All analyses represent one of at least three independent experiments. The skilled person in the art will understand that the drawings, described herein, are for illustration purposes only. The drawings are not intended to limit the scope of the applicants' teachings in any way.
as §2

[3] = system: BT20-NS and BT20-shB6 cells; assay: Cell survival (resazurin) with MET inhibitor, BT-20-derived cells; format: cell-based, human; settings: increasing concentrations, 24 hours, vs BT20-NS (FIG. 10B)
Method: as §1, §2

[4] = system: MDA-pc3 and MDA-B6 cells (MDA-MB-231); assay: Drug sensitivity assay (resazurin), SRC inhibitors, MDA-MB-231-derived cells; format: cell-based, human; settings: MDA-pc3 vs MDA-B6, increasing concentrations, 72 h, resazurin (FIG. 4A, 4B)
Method: FIG. 4. […] C. […] All experiments were performed at least three times.

[5] = system: BT-20 cells (EPHB6-targeting shRNA vs non-silencing shRNA); assay: Drug sensitivity assay (resazurin), SRC inhibitors, BT-20 cells with silenced EPHB6; format: cell-based, human; settings: BT-20 with EPHB6-targeting shRNA vs non-silencing shRNA, 96 h (FIGS. 6A-6E)
Method: FIG. 6. SL relation between EPHB6 and SRC in BT-20 TNBC cells. A. Triple negative breast cancer cells, BT-20, were transduced with EPHB6-targeting shRNA (BT20-66-shRNA), or non-silencing shRNA (BT2O-NS). EPHB6 expression was analyzed by Western blotting with anti-EPHB6. Western blotting with anti-tubulin was used as a loading control. B. BT20-66-shRNA and BT2O-NS cells were cultured in 96-well plates with indicated concentrations of SU6656 or matching volumes of DMSO for 96 h. Cells were stained with resazurin and fluorescence was measured using a SpectraMax M5 plate reader to determine cell suppression. Five wells were analyzed per condition. […] C. […] Cells were stained with resazurin and fluorescence was measured using a SpectraMax M5 plate reader to determine cell suppression. Five wells were analyzed per condition. […] PI-stained cells were counted in at least 10 randomly captured frames. […] Stained cells were analyzed by flow cytometry and the FlowJo software. […]
MDA-MB-231 and BT-20 cell monolayers were incubated in 96-well plates for 72 h and 96 h, respectively, with indicated concentrations of KX2-391 or SU6656, or matching volumes of DMSO as a solvent control. Treated cells were stained using resazurin by following the manufacturer's instructions and fluorescence was measured using a SpectraMax M5 microplate reader.

[6] = target: SRC (Homo sapiens, UniProt P12931); assay: SRC inhibition in cells (anti-SRC immunoprecipitation, anti-phospho-SRC Western blot); format: cell-based; settings: MDA-B6 cells, 20 μM, 40 minutes, 10% FBS (FIG. 9B)
SRC, sequence (P12931 whole entry): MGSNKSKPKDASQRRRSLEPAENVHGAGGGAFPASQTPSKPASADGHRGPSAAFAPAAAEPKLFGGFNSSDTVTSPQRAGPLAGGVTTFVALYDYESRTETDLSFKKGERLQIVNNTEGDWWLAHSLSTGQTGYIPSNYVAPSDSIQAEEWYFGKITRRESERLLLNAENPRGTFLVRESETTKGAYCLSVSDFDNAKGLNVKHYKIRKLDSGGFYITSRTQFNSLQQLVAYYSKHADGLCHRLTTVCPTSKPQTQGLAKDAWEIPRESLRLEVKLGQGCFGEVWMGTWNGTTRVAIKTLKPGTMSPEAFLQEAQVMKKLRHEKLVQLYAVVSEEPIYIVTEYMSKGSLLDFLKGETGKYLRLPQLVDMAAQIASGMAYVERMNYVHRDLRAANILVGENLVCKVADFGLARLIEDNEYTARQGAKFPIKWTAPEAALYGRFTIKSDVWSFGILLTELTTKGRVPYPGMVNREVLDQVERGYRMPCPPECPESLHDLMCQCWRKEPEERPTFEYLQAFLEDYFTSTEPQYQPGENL

Row | SMILES | cell survival of EPHB6-deficient MDA-pc3 cells [1] | suppression of cell populations in co-culture [2] | cell survival of BT20-shB6 cells [3] | cell suppression relative to DMSO control, EPHB6-deficient vs EPHB6-expressing cells [4] | cell suppression after silencing of EPHB6 expression [5] | SRC inhibition (phospho-SRC) [6]
1 | O=C1NC(=O)[C@@H](c2cn3c4c(cccc24)CCC3)[C@@H]1c1c[nH]c2ccccc12 [ARQ197] | decreased cell survival compared to MDA-B6 cells | preferentially suppressed EPPBH6-deficient MDA-B6 cells | decreased cell survival compared to BT-20 cells transduced with non-silencing shRNA | – | – | –
2 | CN(C)S(=O)(=O)c1ccc2c(c1)/C(=C/c1cc3c([nH]1)CCCC3)C(=O)N2 [SU6656] | – | – | – | preferentially suppressed EPHB6-deficient MDA-pc3 cells | strongly increased their suppression | efficiently inhibited
